Where two headings read alike, the source gives them in different places.
Columns and labels:
[1] = Cytotoxicity assay revealed by MTT after seven days of culture; type: cell-based, human; conditions: human, PBMC, 50% diminution of growth and viability
Method: (§1) Concurrently to the screening, and in the same conditions, cytotoxicity assays of the test compounds were carried out.
(§2) This assay has allowed to determine the concentration of the product causing a diminution of 50% of the growth and the viability of PBMC (CC50).
(§3) The PBMC were isolated as described in Ulmer and col., Immunobiology, 166(3), 238-250 (1984) from a healthy donor by a Ficoll gradient (Nicomed Pharma AS).
(§4) The PBMC were activated with phytohemagglutinine for three days and then cultivated in a 96-well plate, in a base medium (RPMI) supplemented with recombinant human Interleukin-2.
(§5) Throughout the culture, the cells were maintained at 37° C., in an atmosphere saturated in humidity, and under 5% CO2.

HIV-1 lai strain = experiment: Anti-HIV test on PBMC, viral replication measured by Reverse Transcriptase (RT) activity in culture supernatants; type: cell-based; conditions: for IC50 / IC90: Human immunodeficiency virus 1, 168 h, against HIV-Lai on PBMC, 7 days, RT activity assay; for activity relative to that of its congeners or of its rivals: from Table 1
Method: The object of the screening is to evaluate the antiretroviral activity of the compounds of the present invention and of the Comparative Compounds on the HIV-1 lai strain cultivated on peripheral blood mononucleated cells (PBMC). For this purpose, the test compounds were incubated for seven days (duration of the anti-HIV test) with the PBMC in exponential phase of growth. The ability of the compounds to inhibit the viral replication was then measured in the culture supernatants either by an assay of the “Reverse Transcriptase” (RT) activity with the kit RetroSys TR (INNOVAGEN) or by an assay of the protein P24 with the kit Innotest HIV Antigen mAb Screening (IMMUNOGENETICS). The concentrations of the test compound causing 50 and 90% inhibition of the viral replication were determined. It concerns inhibition concentrations IC50 and IC90, respectively. The PBMC were isolated as described in Ulmer and col., Immunobiology, 166(3), 238-250 (1984) from a healthy donor by a Ficoll gradient (Nicomed Pharma AS). The PBMC were activated with phytohemagglutinine for three days and then cultivated in a 96-well plate, in a base medium (RPMI) supplemented with recombinant human Interleukin-2. Throughout the culture, the cells were maintained at 37° C., in an atmosphere saturated in humidity, and under 5% CO2. The PBMC were pre-treated for one hour in the presence of the test compounds at various concentrations, and then infected with 100 TCID50 of HIV-1-Lai [S. Wain-Hobson and col., Science 17, 252 (5008): 961-965 (1991)]. Three days after the infection with HIV-1, the half of the culture medium was changed and, at the day 7, the supernatants were taken and frozen at −20° C. Then, the viral replication was measured: a) by assaying the “Reverse Transcriptase” (RT) activity in the culture supernatants by means of the kit RetroSys (Innovagen). The RT contained in the supernatant synthesizes, in the presence of bromodeoxyuridine triphosphate (BrdUTP), a complementary strand DNA to a matrix immobilized on the bottom of the wells of a 96-well plate. The incorporation of BrdU is quantified by the fixation of an antibody anti-BrdU conjugated to the alkaline phosphatase. The activity of the attached alkaline phosphatase, measured by colorimetry, is proportional to the RT activity in the culture supernatant. The results described below are the results of at least two experiments which are distinct and carried out in triplicate.

HIV-1 = conditions: cited from earlier work; for activity against HIV-1: prior art
[2] = Combination test with AZT, ddI and ddC; type: cell-based
[3] = tested on: Bone marrow cells of Balb/c mice; experiment: Toxicity test on bone marrow cells (proliferation by Trypan blue count, differentiation by flow cytometry); type: cell-based; conditions: for cell proliferation / proportions of lymphocytes B, myelocytes, neutrophiles and macrophages induced by the cytokines: mouse bone marrow cells, 5 days; for cell proliferation: 1×10^−12 to 1×10^−5 M, versus absence of compound; for proportions of lymphocytes B, myelocytes, neutrophiles and macrophages induced by the cytokines: whatever the concentration, presence versus absence of compound
Method: Toxicity tests of Compounds No. 3 and 5 of the present invention were further carried out on bone marrow cells according to the following working method. Bone marrow cells of Balb/c mice were cultivated at the rate of 5×10^5 cells/ml in cultures of 1 ml in RPMI 1640 medium supplemented with 1 mM glutamine, 10% fetal calf serum, penicillin and streptomycin (GIBCO, USA). The cells were stimulated by addition of 1 ng/ml of Stem cell factor (c-kit ligand), IL3 and GM-CSF (Pharmingen, USA) in the presence of increasing concentrations of the Compounds 3 and 5 of the present invention ranging from 1×10^−12 to 1×10^−5 M. After 5 days of culture at 37° C., 5% CO2, the cells were recovered. The proliferation was evaluated by numeration of living cells in the presence of Trypan blue. The differentiation of the cells was evaluated by Flow Cytometry (Facs-Calibur, BECTON DICKINSON, USA) by double labeling of the cells with antibodies anti-CD38 conjugated with phycoerythrine (PE), anti-Gr1 conjugated with fluoresceine 5 (Fl), anti-Gr1-PE and anti-CD11b-Fl (Pharmingen, USA).

PBMC = experiment: Cytotoxicity assay revealed by MTT after seven days of culture; type: cell-based, human; conditions: 7 days, 50% diminution of growth and viability
Method: as §1, §2, §3, §4, §5

| SMILES | CC50 at 7 days [1] [nM] | melting point [°C] | IC50 (HIV-1 lai strain) [nM] | IC90 (HIV-1 lai strain) [nM] | also measured |
| --- | --- | --- | --- | --- | --- |
| CCc1c(Cc2cc(C)cc(C)c2)n(COCCN(O)C(N)=O)c(=O)[nH]c1=O [Comparative 1, 1-(2-N^1-hydroxyureidoethyloxymethyl)-6-(3,5-dimethylbenzyl)-5-ethyluracil] | > 500000 | 147 to 148 | 0.92 | 15 |  |
| CCc1c(Cc2cc(C)cc(C)c2)n(COCCCCN(O)C(N)=O)c(=O)[nH]c1=O [Comparative 2, 1-(4-N^1-hydroxyureidobutyloxymethyl)-6-(3,5-dimethylbenzyl)-5-ethyluracil] | > 50000 | 148 to 150 | 2.3 | 30 |  |
| CCc1c(Cc2ccccc2)n(COCCN(O)C(N)=O)c(=O)[nH]c1=O [Comparative 3, 1-(2-N^1-hydroxyureidoethyloxymethyl)-6-benzyl-5-ethyluracile] | > 250000 | 276 to 277 | 70 |  | IC50 (HIV-1; against HIV-1, prior art): 70 nM; activity against HIV-1 (HIV-1): only very moderately active |
| CCOCn1c(Cc2ccccc2)c(C(C)C)c(=O)[nH]c1=O [Comparative 4, 1-ethyloxymethyl-6-benzyl-5-isopropyluracil, reference compound] | > 30000 |  | 2 |  |  |
| CCc1c(Cc2cc(C)cc(C)c2)n(COCCCNC(=O)NO)c(=O)[nH]c1=O [Compound 1, 1-(3-N^3-hydroxyureidopropyloxymethyl)-6-(3,5-dimethylbenzyl)-5-ethyl-uracil] | 260000 |  | 2.3 | 9 |  |
| CCc1c(Cc2cc(C)cc(C)c2)n(COCCCN(O)C(N)=O)c(=O)[nH]c1=O [Compound 2, 1-(3-N1-hydroxyureidopropyloxymethyl)-6-(3,5-dimethylbenzyl)-5-ethyl-uracil] | > 300000 | 165 to 167 | 0.24 | 1.7 | synergy with AZT, ddI and ddC [2]: exhibited a synergy |
| Cc1cc(C)cc(Cc2c(C(C)C)c(=O)[nH]c(=O)n2COCCCN(O)C(N)=O)c1 [Compound 3, 1-(3-N^1-hydroxyureidopropyloxymethyl)-6-(3,5-dimethylbenzyl)-5-isopropyluracil] | 220000 | 88 to 90 |  | 0.0039 | toxic effects on bone marrow cells of mice ([3]; even at concentrations 1×10^6 time higher than those inhibiting HIV replication in human lymphocytes in vitro): no significant toxic effects; cell proliferation [3]: identical to the one observed in the absence; proportions of lymphocytes B, myelocytes, neutrophiles and macrophages induced by the cytokines [3]: identical in the presence or in the absence; activity relative to that of its congeners or of its rivals (HIV-1 lai strain): 100,000 times |
| CC(=O)ON(CCCOCn1c(Cc2cc(C)cc(C)c2)c(C(C)C)c(=O)[nH]c1=O)C(N)=O [Compound 4, 1-(3-N^1-acetoxyureidopropyloxymethyl)-6-(3,5-dimethylbenzyl)-5-isopropyluracile] | 30000 | 77 to 79 | 0.03 | 0.6 |  |
| Cc1cc(C)cc(Cc2c(C(C)C)c(=O)[nH]c(=O)n2COCCCN(OC(=O)C(C)(C)C)C(N)=O)c1 [Compound 5, 1-(3-N^1-pivaloyloxyureidopropyloxymethyl)-6-(3,5-dimethylbenzyl)-5-isopropyluracil] |  |  |  |  | CC50 (PBMC): 65000 nM; toxic effects on bone marrow cells of mice [3]: no significant toxic effects; cell proliferation [3]: identical to the one observed in the absence; proportions of lymphocytes B, myelocytes, neutrophiles and macrophages induced by the cytokines [3]: identical in the presence or in the absence; activity relative to that of its congeners or of its rivals (HIV-1 lai strain): 1,000,000 times |
| Cc1cn(C(C)OCCN(O)C(N)=O)c(=O)[nH]c1=O (stereo not shown) [Formula B] |  |  |  |  | activity against HIV-1 (HIV-1): totally inactive |
